This is an account of results in ChEMBL document CHEMBL4411327, “Discovery of pyrimidine nucleoside dual prodrugs and pyrazine nucleosides as novel anti-HCV agents” (Bioorg Med Chem, 2019).

The term EC50 denotes the concentration that produces a half-maximal response. As a reminder, the CC50 is the concentration giving 50% cytotoxicity. Low values mean harm at low concentration, high ones better tolerance by the cells. One may read the inhibition as the share of the control response that was lost under treatment. A higher inhibition goes with a response far below the control.

For data set [1], the system named is Hepatitis C virus. The data set is described as follows: Antiviral activity against HCV genotype 1b replicon infected in human HuH7 cells after 72 hrs by bright-glo luciferase reporter gene assay. Format: functional, organism-based, Hepacivirus hominis. Particulars: subtype 1b, Huh-7, 72 h. (A replicon is a self-replicating genome or part of one, used to study replication in cells.)

Data set [2] is described as follows: Cytotoxicity against human HuH7 cells infected with HCV genotype 1b replicon after 72 hrs by CellTiter-Fluor reagent based fluorescence assay. Format: cell-based, Huh-7.
Data set [3] relates to Hepatitis C virus. Briefly: Antiviral activity against HCV genotype 1b replicon infected in human HuH7 cells at 20 uM after 72 hrs by bright-glo luciferase reporter gene assay relative to control. It counts as functional, Hepacivirus hominis. As to conditions: subtype 1b, Huh-7, 72 h.

For `C[C@@]1(O)[C@H](O)[C@@H](CO)O[C@H]1n1cc(Br)ncc1=O`, the EC50 in data set [1] is > 100 µM. The 50% cytotoxic concentration (CC50) at 72 h in data set [2] was > 100 µM.

`CCNc1nccn([C@@H]2O[C@H](CO)[C@@H](O)[C@@]2(C)O)c1=O`: the half-maximal effective concentration (EC50) in data set [1] is > 100 µM. Besides, in data set [2], the CC50 at 72 h is > 100 µM.

`CC(C)OC(=O)[C@H](C)N[P@](=O)(OC[C@H]1O[C@@H](n2ccc(Oc3ccccc3)nc2=O)[C@](C)(F)[C@@H]1O)Oc1ccccc1`: the EC50 in data set [1] was > 20 µM. Also, the inhibition at 20 µM in data set [3] was 0%. Besides, the CC50 at 72 h in data set [2] was > 20 µM.

For the compound `C[C@]1(CO)O[C@@H](n2ccnc(N)c2=O)[C@H](O)[C@@H]1O`, in data set [1], the EC50 was > 100 µM. Further, the cytotoxic concentration (CC50) at 72 h in data set [2] was > 100 µM.

As to `CC(C)OC(=O)[C@H](C)N[P@](=O)(OC[C@H]1O[C@@H](n2cc(C(N)=O)ncc2=O)[C@](C)(O)[C@@H]1O)Oc1ccccc1`, the EC50 in data set [1] was > 100 µM. Also, the half-maximal cytotoxic concentration (CC50) at 72 h in data set [2] was > 100 µM.

Turning to `CCNc1nccn([C@@H]2O[C@](C)(CO)[C@@H](O)[C@H]2O)c1=O`, the EC50 in data set [1] was > 100 µM. The CC50 at 72 h in data set [2] was > 100 µM.

As for `C=CCNc1ccn([C@@H]2O[C@H](CO[P@@](=O)(N[C@@H](C)C(=O)OC(C)C)Oc3ccccc3)[C@@H](O)[C@@]2(C)F)c(=O)n1`, in data set [1], the concentration giving a half-maximal response (EC50) is > 20 µM. Further, in data set [3], the inhibition at 20 µM was found to be 0%. In addition, the CC50 at 72 h in data set [2] was > 20 µM.

On to `C=CCOc1ccn([C@@H]2O[C@H](CO[P@@](=O)(N[C@@H](C)C(=O)OC(C)C)Oc3ccccc3)[C@@H](O)[C@@]2(C)F)c(=O)n1`, for which the EC50 in data set [1] is > 20 µM. The inhibition at 20 µM in data set [3] is 0%. Moreover, the CC50 at 72 h in data set [2] was > 20 µM.

As to `C[C@@]1(O)[C@H](O)[C@@H](CO)O[C@H]1n1cc(C(N)=O)ncc1=O`, the concentration for a half-maximal effect (EC50) in data set [1] was > 100 µM. Moreover, the CC50 at 72 h in data set [2] was > 100 µM.

Regarding `C[C@]1(CO)O[C@@H](n2ccnc(C(N)=O)c2=O)[C@H](O)[C@@H]1O`, the concentration for a half-maximal effect (EC50) in data set [1] is > 100 µM. In addition, the CC50 at 72 h in data set [2] is > 100 µM.

For `C[C@@]1(O)[C@H](O)[C@@H](CO)O[C@H]1n1cc(Cl)nc(C(N)=O)c1=O`, a half-maximal response in data set [1] (EC50) required 7.3 µM. For the same compound, the CC50 at 72 h in data set [2] was > 100 µM.

As to `CCNc1nccn([C@@H]2O[C@](C)(CO[P@@](=O)(N[C@@H](C)C(=O)OC(C)C)Oc3ccccc3)[C@@H](O)[C@H]2O)c1=O`, the EC50 in data set [1] was > 100 µM. For the same compound, in data set [2], the 50% cytotoxic concentration (CC50) at 72 h is > 100 µM.

As for `CC(C)OC(=O)[C@@H](C)N[P@@](=O)(OC[C@H]1O[C@@H](n2ccnc(N)c2=O)[C@](C)(O)[C@@H]1O)Oc1ccccc1`, the EC50 in data set [1] was > 100 µM. Moreover, the CC50 at 72 h in data set [2] was > 100 µM.

In the case of `COc1ccn([C@@H]2O[C@H](CO[P@@](=O)(N[C@@H](C)C(=O)OC(C)C)Oc3ccccc3)[C@@H](O)[C@@]2(C)F)c(=O)n1`, the concentration giving a half-maximal response (EC50) in data set [1] was > 20 µM. Moreover, the inhibition at 20 µM in data set [3] came out at 0%. Further, the 50% cytotoxic concentration (CC50) at 72 h in data set [2] was > 20 µM.

Regarding `CCNc1nccn([C@@H]2O[C@H](CO[P@@](=O)(N[C@@H](C)C(=O)OC(C)C)Oc3ccccc3)[C@@H](O)[C@@]2(C)O)c1=O`, the EC50 in data set [1] was > 100 µM. Moreover, the CC50 at 72 h in data set [2] is > 100 µM.

On to `CC(C)OC(=O)[C@H](C)N[P@](=O)(OC[C@H]1O[C@@H](n2ccc(OC3CC3)nc2=O)[C@](C)(F)[C@@H]1O)Oc1ccccc1`, for which, in data set [1], the EC50 was > 20 µM. For the same compound, the inhibition at 20 µM in data set [3] came out at 0%. Moreover, in data set [2], the half-maximal cytotoxic concentration (CC50) at 72 h was > 20 µM.

In data set [1], `C#CCOc1ccn([C@@H]2O[C@H](CO[P@@](=O)(N[C@@H](C)C(=O)OC(C)C)Oc3ccccc3)[C@@H](O)[C@@]2(C)F)c(=O)n1` returned an EC50 of 12.2 µM. The inhibition at 20 µM in data set [3] came to 46.9%. In addition, the CC50 at 72 h in data set [2] is > 20 µM.

Regarding `CC(C)=CCOc1ccn([C@@H]2O[C@H](CO[P@@](=O)(N[C@@H](C)C(=O)OC(C)C)Oc3ccccc3)[C@@H](O)[C@@]2(C)F)c(=O)n1`, the EC50 in data set [1] was 0.2 µM. Besides, the inhibition at 20 µM in data set [3] came to 99.9%. For the same compound, in data set [2], the CC50 at 72 h is > 20 µM.

In the case of `CC(C)OC(=O)[C@H](C)N[P@](=O)(OC[C@H]1O[C@@H](n2ccc(OCc3ccccc3)nc2=O)[C@](C)(F)[C@@H]1O)Oc1ccccc1`, the EC50 in data set [1] was > 20 µM. In data set [3], this compound returned an inhibition at 20 µM of 0%. Moreover, the CC50 at 72 h in data set [2] is > 20 µM.
